Source: ChEMBL document CHEMBL1134637, “Fluorescent tricyclic analogues of acyclovir and ganciclovir. A structure-antiviral activity study” (2001)
Converted amounts (≈) assume the structure as drawn.

How the values were obtained:
Type in all cases: functional
Human alphaherpesvirus 1 [1] = test: Minimal inhibitory concentration to reduce virus-induced cytopathicity against KOS strain of human Herpes Simplex Virus -1
Vaccinia virus = test: Minimal inhibitory concentration to reduce virus-induced cytopathicity against VV; details: Orthopoxvirus vaccinia
Human alphaherpesvirus 1 [2] = test: Minimal inhibitory concentration to reduce virus-induced cytopathicity against TK-/TK+ HSV-1 of VMW 837
Human alphaherpesvirus 1 [3] = test: Minimal inhibitory concentration to reduce virus-induced cytopathicity against F strain of human Herpes Simplex Virus-1 (HSV-1); details: Human alphaherpesvirus 1; read-out: MIC
Human alphaherpesvirus 1 [4] = test: Minimal inhibitory concentration to reduce virus-induced cytopathicity against Thymidine kinase deficient(TK-) HSV-1 of Acyclovir
Human alphaherpesvirus 1 [5] = test: Minimal inhibitory concentration to reduce virus-induced cytopathicity against McIntyre strain of human Herpes Simplex Virus-1
Human alphaherpesvirus 2 [6] = test: Minimal inhibitory concentration to reduce virus-induced cytopathicity against G strain of human Herpes Simplex Virus-2
Human alphaherpesvirus 2 [7] = test: Minimal inhibitory concentration to reduce virus-induced cytopathicity against 196 strain of human Herpes Simplex Virus-2
Human alphaherpesvirus 2 [8] = test: Minimal inhibitory concentration to reduce virus-induced cytopathicity against Lyons strain of human Herpes Simplex Virus-2
[9] = system: Vesicular stomatitis virus; test: Minimal inhibitory concentration to reduce virus-induced cytopathicity against VSV
[10] = Minimal cytotoxic concentration (MCC) to cause a microscopically detectable change in normal cell morphology
[11] = Human alphaherpesvirus 2, read-out: MIC

`CCc1cn2c(O)c3ncn(COCCO)c3nc2n1` showed an MIC (Human alphaherpesvirus 1 [1]) of 1.92 µg/mL (≈ 6.92 µM), an MIC (Vaccinia virus) of 240 µg/mL (≈ 866 µM) and an MIC (Human alphaherpesvirus 1 [2]) of 48 µg/mL (≈ 173 µM). It also gave an MIC (Human alphaherpesvirus 1 [3]) of 9.6 µg/mL (≈ 34.6 µM), an MIC (Human alphaherpesvirus 1 [4]) of 240 µg/mL (≈ 866 µM) and an MIC (Human alphaherpesvirus 1 [5]) of 9.6 µg/mL (≈ 34.6 µM). For the same molecule, the MIC (Human alphaherpesvirus 2 [6]; [11]) was 9.6 µg/mL (≈ 34.6 µM), the MIC (Human alphaherpesvirus 2 [7]) was 9.6 µg/mL (≈ 34.6 µM) and the MIC (Human alphaherpesvirus 2 [8]) was 9.6 µg/mL (≈ 34.6 µM). For the same molecule, the MIC [9] was > 400 µg/mL and the MCC [10] was > 400 µg/mL.
For `OCCOCn1cnc2c(O)n3c(-c4ccc(C(c5ccccc5)c5ccccc5)cc4)c(-c4ccccc4)nc3nc21`, the MIC (Human alphaherpesvirus 1 [1]) was > 16 µg/mL, the MIC (Vaccinia virus) was > 16 µg/mL and the MIC (Human alphaherpesvirus 1 [2]) was > 16 µg/mL. For the same molecule, the MIC (Human alphaherpesvirus 1 [3]) was > 16 µg/mL, the MIC (Human alphaherpesvirus 1 [4]) was > 16 µg/mL and the MIC (Human alphaherpesvirus 1 [5]) was > 16 µg/mL. For the same molecule, the MIC (Human alphaherpesvirus 2 [6]; [11]) was > 16 µg/mL, the MIC (Human alphaherpesvirus 2 [7]) was > 16 µg/mL and the MIC (Human alphaherpesvirus 2 [8]) was > 16 µg/mL. The MIC [9] was > 16 µg/mL and the MCC [10] was 80 µg/mL.
With `COc1cccc(-c2cn3c(O)c4ncn(COCCO)c4nc3n2)c1` the MIC (Human alphaherpesvirus 1 [1]) was 1.92 µg/mL (≈ 5.4 µM), the MIC (Vaccinia virus) was > 400 µg/mL and the MIC (Human alphaherpesvirus 1 [2]) was 9.6 µg/mL (≈ 27 µM). For the same molecule, the MIC (Human alphaherpesvirus 1 [3]) was 1.92 µg/mL (≈ 5.4 µM), the MIC (Human alphaherpesvirus 1 [4]) was > 80 µg/mL and the MIC (Human alphaherpesvirus 1 [5]) was 0.64 µg/mL (≈ 1.8 µM). The MIC (Human alphaherpesvirus 2 [6]; [11]) was 1.92 µg/mL (≈ 5.4 µM), the MIC (Human alphaherpesvirus 2 [7]) was 3.2 µg/mL (≈ 9.01 µM) and the MIC (Human alphaherpesvirus 2 [8]) was 3.2 µg/mL (≈ 9.01 µM). The MIC [9] was 240 µg/mL (≈ 675 µM) and the MCC [10] was > 400 µg/mL.
In the case of `Cc1nc2nc3c(ncn3COCCO[Si](C)(C)C(C)(C)C)c(O)n2c1C(c1ccccc1)(c1ccccc1)c1ccccc1`, the MIC (Human alphaherpesvirus 1 [1]) is reported as > 10 µg/mL, the MIC (Vaccinia virus) is reported as 2 µg/mL (≈ 3.23 µM) and the MIC (Human alphaherpesvirus 1 [2]) is reported as > 10 µg/mL. For the same molecule, the MIC (Human alphaherpesvirus 1 [4]) was > 10 µg/mL, the MIC (Human alphaherpesvirus 2 [6]; [11]) was > 10 µg/mL and the MIC [9] was > 10 µg/mL. For the same molecule, the MCC [10] was 40 µg/mL.
In the case of `O=c1[nH]c(=O)n([C@H]2C[C@H](O)[C@@H](CO)O2)cc1/C=C/Br` [BRIVUDINE], the MIC (Human alphaherpesvirus 1 [1]) is reported as 0.02 µg/mL (≈ 0.06 µM), the MIC (Vaccinia virus) is reported as 9.2 µg/mL (≈ 27.6 µM) and the MIC (Human alphaherpesvirus 1 [2]) is reported as > 100 µg/mL. The MIC (Human alphaherpesvirus 1 [3]) was 0.02 µg/mL (≈ 0.06 µM), the MIC (Human alphaherpesvirus 1 [4]) was 90 µg/mL (≈ 270 µM) and the MIC (Human alphaherpesvirus 1 [5]) was 0.01 µg/mL (≈ 0.03 µM). For the same molecule, the MIC (Human alphaherpesvirus 2 [6]; [11]) was > 100 µg/mL, the MIC (Human alphaherpesvirus 2 [7]) was > 100 µg/mL and the MIC (Human alphaherpesvirus 2 [8]) was > 100 µg/mL. The MIC [9] was > 200 µg/mL and the MCC [10] was > 400 µg/mL.
For `O=c1c2ncn(COCCO)c2nc2n(Cc3ccccc3)c(-c3ccccc3)cn12`, the MIC (Human alphaherpesvirus 1 [1]) was > 100 µg/mL, the MIC (Vaccinia virus) was > 100 µg/mL and the MIC (Human alphaherpesvirus 1 [2]) was > 100 µg/mL. For the same molecule, the MIC (Human alphaherpesvirus 1 [4]) was > 100 µg/mL, the MIC (Human alphaherpesvirus 2 [6]) was > 100 µg/mL and the MIC [9] was > 100 µg/mL. The MCC [10] was > 100 µg/mL.
`OCC(CO)OCn1cnc2c(O)n3ccnc3nc21` showed an MIC (Human alphaherpesvirus 1 [1]) of 0.7 µg/mL (≈ 2.51 µM), an MIC (Vaccinia virus) of 400 µg/mL (≈ 1430 µM) and an MIC (Human alphaherpesvirus 1 [3]) of 0.7 µg/mL (≈ 2.51 µM). The MIC (Human alphaherpesvirus 1 [4]) was 400 µg/mL (≈ 1430 µM), the MIC (Human alphaherpesvirus 1 [5]) was 0.7 µg/mL (≈ 2.51 µM) and the MIC (Human alphaherpesvirus 2 [6]; [11]) was 2 µg/mL (≈ 7.16 µM). For the same molecule, the MIC (Human alphaherpesvirus 2 [7]) was 2 µg/mL (≈ 7.16 µM), the MIC (Human alphaherpesvirus 2 [8]) was 0.7 µg/mL (≈ 2.51 µM) and the MCC [10] was 400 µg/mL.
With `Cc1ccc(-c2cn3c(O)c4ncn(COCCO)c4nc3n2)cc1` the MIC (Human alphaherpesvirus 1 [1]) was 0.43 µg/mL (≈ 1.27 µM), the MIC (Vaccinia virus) was > 40 µg/mL and the MIC (Human alphaherpesvirus 1 [2]) was 82 µg/mL (≈ 242 µM). The MIC (Human alphaherpesvirus 1 [3]) was 0.07 µg/mL (≈ 0.206 µM), the MIC (Human alphaherpesvirus 1 [4]) was 9.2 µg/mL (≈ 27.1 µM) and the MIC (Human alphaherpesvirus 1 [5]) was 0.07 µg/mL (≈ 0.206 µM). For the same molecule, the MIC (Human alphaherpesvirus 2 [6]; [11]) was 0.93 µg/mL (≈ 2.74 µM), the MIC (Human alphaherpesvirus 2 [7]) was 0.2 µg/mL (≈ 0.589 µM) and the MIC (Human alphaherpesvirus 2 [8]) was 0.4 µg/mL (≈ 1.18 µM). The MIC [9] was > 40 µg/mL and the MCC [10] was 250 µg/mL.
With `Cc1ccc(-c2cn3c(O)c4ncn(COC(CO)CO)c4nc3n2)cc1` the MIC (Human alphaherpesvirus 1 [1]) was 0.02 µg/mL (≈ 0.0541 µM), the MIC (Vaccinia virus) was > 16 µg/mL and the MIC (Human alphaherpesvirus 1 [2]) was 0.1 µg/mL (≈ 0.271 µM). The MIC (Human alphaherpesvirus 1 [3]) was 0.01 µg/mL (≈ 0.0271 µM), the MIC (Human alphaherpesvirus 1 [4]) was > 16 µg/mL and the MIC (Human alphaherpesvirus 1 [5]) was 0.08 µg/mL (≈ 0.217 µM). For the same molecule, the MIC (Human alphaherpesvirus 2 [6]; [11]) was 0.13 µg/mL (≈ 0.352 µM), the MIC (Human alphaherpesvirus 2 [7]) was 0.13 µg/mL (≈ 0.352 µM) and the MIC (Human alphaherpesvirus 2 [8]) was 0.08 µg/mL (≈ 0.217 µM). For the same molecule, the MIC [9] was > 16 µg/mL and the MCC [10] was 80 µg/mL.
With `COc1ccc(-c2cn3c(O)c4ncn(COCCO)c4nc3n2)cc1` the MIC (Human alphaherpesvirus 1 [1]) was 0.1 µg/mL (≈ 0.281 µM), the MIC (Vaccinia virus) was > 40 µg/mL and the MIC (Human alphaherpesvirus 1 [2]) was 21 µg/mL (≈ 59.1 µM). The MIC (Human alphaherpesvirus 1 [3]) was 0.07 µg/mL (≈ 0.197 µM), the MIC (Human alphaherpesvirus 1 [4]) was 5.9 µg/mL (≈ 16.6 µM) and the MIC (Human alphaherpesvirus 1 [5]) was 0.03 µg/mL (≈ 0.0844 µM). The MIC (Human alphaherpesvirus 2 [6]; [11]) was 0.15 µg/mL (≈ 0.422 µM), the MIC (Human alphaherpesvirus 2 [7]) was 0.2 µg/mL (≈ 0.563 µM) and the MIC (Human alphaherpesvirus 2 [8]) was 0.2 µg/mL (≈ 0.563 µM). The MIC [9] was > 40 µg/mL and the MCC [10] was 150 µg/mL.
With `OCCOCn1cnc2c(O)n3c(-c4ccccc4)c(-c4ccccc4)nc3nc21` the MIC (Human alphaherpesvirus 1 [1]) was 1.92 µg/mL (≈ 4.78 µM), the MIC (Vaccinia virus) was > 16 µg/mL and the MIC (Human alphaherpesvirus 1 [2]) was > 16 µg/mL. For the same molecule, the MIC (Human alphaherpesvirus 1 [3]) was 9.6 µg/mL (≈ 23.9 µM), the MIC (Human alphaherpesvirus 1 [4]) was > 16 µg/mL and the MIC (Human alphaherpesvirus 1 [5]) was 9.6 µg/mL (≈ 23.9 µM). It also gave an MIC (Human alphaherpesvirus 2 [6]; [11]) of 1.92 µg/mL (≈ 4.78 µM), an MIC (Human alphaherpesvirus 2 [7]) of 9.6 µg/mL (≈ 23.9 µM) and an MIC (Human alphaherpesvirus 2 [8]) of 16 µg/mL (≈ 39.9 µM). For the same molecule, the MIC [9] was > 16 µg/mL and the MCC [10] was > 16 µg/mL.
In the case of `OCCOCn1cnc2c(O)n3cc(-c4ccccc4)nc3nc21`, the MIC (Human alphaherpesvirus 1 [1]) is reported as 0.4 µg/mL (≈ 1.23 µM), the MIC (Vaccinia virus) is reported as > 100 µg/mL and the MIC (Human alphaherpesvirus 1 [2]) is reported as > 70 µg/mL. For the same molecule, the MIC (Human alphaherpesvirus 1 [3]) was 0.7 µg/mL (≈ 2.15 µM), the MIC (Human alphaherpesvirus 1 [5]) was 0.2 µg/mL (≈ 0.615 µM) and the MIC (Human alphaherpesvirus 2 [6]; [11]) was 1.3 µg/mL (≈ 4 µM). The MIC (Human alphaherpesvirus 2 [7]) was 0.2 µg/mL (≈ 0.615 µM), the MIC (Human alphaherpesvirus 2 [8]) was 0.7 µg/mL (≈ 2.15 µM) and the MIC [9] was > 100 µg/mL. The MCC [10] was > 100 µg/mL.
For `CC(=O)OCCOCn1cnc2c(O)n3cc(-c4ccc5ccccc5c4)nc3nc21`, the MIC (Human alphaherpesvirus 1 [1]) was > 16 µg/mL, the MIC (Vaccinia virus) was > 16 µg/mL and the MIC (Human alphaherpesvirus 1 [2]) was > 16 µg/mL. For the same molecule, the MIC (Human alphaherpesvirus 1 [3]) was > 16 µg/mL, the MIC (Human alphaherpesvirus 1 [4]) was > 16 µg/mL and the MIC (Human alphaherpesvirus 1 [5]) was > 16 µg/mL. For the same molecule, the MIC (Human alphaherpesvirus 2 [6]; [11]) was > 16 µg/mL, the MIC (Human alphaherpesvirus 2 [7]) was > 16 µg/mL and the MIC (Human alphaherpesvirus 2 [8]) was > 16 µg/mL. The MIC [9] was > 16 µg/mL and the MCC [10] was > 80 µg/mL.
With `OCCOCn1cnc2c(O)n3cc(-c4ccc5ccccc5c4)nc3nc21` the MIC (Human alphaherpesvirus 1 [1]) was 5.8 µg/mL (≈ 15.5 µM), the MIC (Vaccinia virus) was > 16 µg/mL and the MIC (Human alphaherpesvirus 1 [2]) was 12.8 µg/mL (≈ 34.1 µM). For the same molecule, the MIC (Human alphaherpesvirus 1 [3]) was 9.6 µg/mL (≈ 25.6 µM), the MIC (Human alphaherpesvirus 1 [4]) was 16 µg/mL (≈ 42.6 µM) and the MIC (Human alphaherpesvirus 1 [5]) was 9.6 µg/mL (≈ 25.6 µM). It also gave an MIC (Human alphaherpesvirus 2 [6]; [11]) of 6.4 µg/mL (≈ 17 µM), an MIC (Human alphaherpesvirus 2 [7]) of 16 µg/mL (≈ 42.6 µM) and an MIC (Human alphaherpesvirus 2 [8]) of 9.6 µg/mL (≈ 25.6 µM). For the same molecule, the MIC [9] was > 16 µg/mL and the MCC [10] was > 80 µg/mL.
